Results: BindingDB's records for doi:10.7270/Q29Z94WS (Warner-Lambert, 1995)

What follows are compounds tested against T1, Sterol O-acyltransferase 1 (Rattus norvegicus, UniProt O70536) (assay: (§1) Concentration required for the in vitro inhibition of Acyl coenzyme A:cholesterol acyltransferase (ACAT) in liver microsomes isolated from cholesterol-fed rats was determined).
T1 sequence (O70536 whole entry): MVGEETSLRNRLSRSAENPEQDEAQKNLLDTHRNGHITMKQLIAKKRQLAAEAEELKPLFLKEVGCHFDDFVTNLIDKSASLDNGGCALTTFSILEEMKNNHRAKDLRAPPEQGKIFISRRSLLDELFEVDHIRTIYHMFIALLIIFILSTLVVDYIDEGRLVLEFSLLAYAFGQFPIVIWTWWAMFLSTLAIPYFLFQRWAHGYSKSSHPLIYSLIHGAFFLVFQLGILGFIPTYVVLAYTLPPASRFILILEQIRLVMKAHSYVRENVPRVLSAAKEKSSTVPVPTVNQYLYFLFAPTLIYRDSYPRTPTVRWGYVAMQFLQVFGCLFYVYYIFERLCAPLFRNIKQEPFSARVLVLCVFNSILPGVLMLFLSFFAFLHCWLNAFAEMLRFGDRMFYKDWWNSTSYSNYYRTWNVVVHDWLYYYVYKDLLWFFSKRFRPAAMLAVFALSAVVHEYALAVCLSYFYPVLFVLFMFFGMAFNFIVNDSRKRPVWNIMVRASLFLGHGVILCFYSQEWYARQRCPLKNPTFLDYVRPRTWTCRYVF
`CCCCCCCCCCCCn1nnc(C(C(=O)Nc2c(OC)cc(OC)cc2OC)c2ccccc2)n1` (configuration not stated) [2-(2-Dodecyl-2H-tetrazol-5-yl)-2-phenyl-N-(2,4,6-trimethoxy-phenyl)-acetamide] showed an IC50 of 24 nM.

These compounds were tested against T1, Sterol O-acyltransferase 1 (assay: ChEBML_28484).
Description: as §1
`CCCCCCCCCCCCn1nnc(C(C(=O)Nc2c(C(C)C)cccc2C(C)C)c2ccccc2)n1` (configuration not stated) [N-(2,6-Diisopropyl-phenyl)-2-(2-dodecyl-2H-tetrazol-5-yl)-2-phenyl-acetamide] was tested, and the IC50 was 10 nM.
Compound `CCCCCCCC[C@@H](SCCCCCC)C(=O)Nc1c(SC)cc[n+](C)c1SC` has an IC50 of 22 nM.
In the case of `CCCCCCCCCCCCn1nnnc1C(C(=O)Nc1c(C(C)C)cccc1C(C)C)c1ccccc1` (configuration not stated), the IC50 is reported as 79 nM.
With `CCCCCCCCCCCCn1nnc(C(C(=O)Nc2c(OC)cc(OC)cc2OC)c2ccccc2)n1` (configuration not stated) [2-(2-Dodecyl-2H-tetrazol-5-yl)-2-phenyl-N-(2,4,6-trimethoxy-phenyl)-acetamide] the IC50 was 14 nM.
With `CCCCCCCC[C@H](SCCCCCC)C(=O)Nc1c(SC)cc[n+](C)c1SC` the IC50 was 160 nM.
`CCCCCCCCCCCCn1nnnc1C(C(=O)Nc1c(OC)cc(OC)cc1OC)c1ccccc1` (configuration not stated) was tested, and the IC50 was 52 nM.
